# Values quoted from earlier work in patent publication US20070281011A1, “Nanoparticulate posaconazole formulations” (Elan Pharma International Ltd., priority 2006, published 2007).
# Assays:
# [1] = test system: cytochrome P450 14a-demethylase (P45014DM); details: particularly in Aspergillus
# [2] = meal containing fat calories; regardless of formulation (tablet versus suspension)
structure (smiles),measurement,setting,value
CC[C@@H]([C@H](C)O)n1ncn(-c2ccc(N3CCN(c4ccc(OC[C@@H]5CO[C@@](Cn6cncn6)(c6ccc(F)cc6F)C5)cc4)CC3)cc2)c1=O [Posaconazole],inhibition of sterol C14 demethylation compared to itraconazole,[1],significantly more potent inhibitor
same,increase of relative oral bioavailability,[2],approximately 400%
same,aqueous solubility,,< 1 µg/mL
